System: plants
Experiment: Test D pre-emergence, other plants of Tables D1 and D3
Format: in vivo
Details: for damage to plant, ALOMY / damage to plant, AVEFA / damage to plant, BEAVA / damage to plant, BROTE / damage to plant, BRSNN / damage to plant, HORVW / damage to plant, SINAR: pre-emergence, 100=total damage, 0=no damage; for ABUTH damage to plant (100=total damage; 0=no damage) / AMARE damage to plant (100=total damage; 0=no damage) / DIGSA damage to plant (100=total damage; 0=no damage) / ECHCG damage to plant (100=total damage; 0=no damage) / ORYSA damage to plant (100=total damage; 0=no damage) / PANMI damage to plant (100=total damage; 0=no damage) / SETFA damage to plant (100=total damage; 0=no damage): preemergent
In short: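 Seeds treated with herbicide safener; sown in soil; glasshouse, 16 h light, 65% humidity. Sprayed day 1 (pre) or ~day 12 (post). Spray in 0.2% v/v adjuvant. Scored 0–100 damage: 20 DAA pre, 15 d post.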

CN1CC(c2cnn(C)c2C(F)(F)F)C(C(=O)Nc2cccc(F)c2F)C1=O (racemic) [Compound 25]
damage to plant, ALOMY (rate 15, 20 DAA): 0 | damage to plant, AVEFA (rate 15, 20 DAA): 0 | damage to plant, BEAVA (rate 15, 20 DAA): 0 | damage to plant, BROTE (rate 15, 20 DAA): 0 | damage to plant, BRSNN (rate 15, 20 DAA): 0 | damage to plant, HORVW (rate 15, 20 DAA): 0 | damage to plant, SINAR (rate 15, 20 DAA): 0 | damage to plant, ALOMY (rate 30, 20 DAA): 0 | damage to plant, AVEFA (rate 30, 20 DAA): 0 | damage to plant, BEAVA (rate 30, 20 DAA): 0 | damage to plant, BROTE (rate 30, 20 DAA): 0 | damage to plant, BRSNN (rate 30, 20 DAA): 0 | damage to plant, HORVW (rate 30, 20 DAA): 0 | damage to plant, SINAR (rate 30, 20 DAA): 0 | damage to plant, ALOMY (rate 60, 20 DAA): 0 | damage to plant, AVEFA (rate 60, 20 DAA): 0 | damage to plant, BEAVA (rate 60, 20 DAA): 0 | damage to plant, BROTE (rate 60, 20 DAA): 0 | damage to plant, BRSNN (rate 60, 20 DAA): 0 | damage to plant, HORVW (rate 60, 20 DAA): 0 | damage to plant, SINAR (rate 60, 20 DAA): 0 | damage to plant, ALOMY (rate 130, 20 DAA): 0 | damage to plant, AVEFA (rate 130, 20 DAA): 0 | damage to plant, BEAVA (rate 130, 20 DAA): 0 | damage to plant, BROTE (rate 130, 20 DAA): 0 | damage to plant, BRSNN (rate 130, 20 DAA): 0 | damage to plant, HORVW (rate 130, 20 DAA): 0 | damage to plant, SINAR (rate 130, 20 DAA): 0 | damage to plant, ALOMY (rate 250, 20 DAA): 0 | damage to plant, AVEFA (rate 250, 20 DAA): 0 | damage to plant, BEAVA (rate 250, 20 DAA): 0 | damage to plant, BROTE (rate 250, 20 DAA): 0 | damage to plant, BRSNN (rate 250, 20 DAA): 0 | damage to plant, HORVW (rate 250, 20 DAA): 0 | damage to plant, SINAR (rate 250, 20 DAA): 0 | damage to plant, ALOMY (rate 500, 20 DAA): 0 | damage to plant, AVEFA (rate 500, 20 DAA): 0 | damage to plant, BEAVA (rate 500, 20 DAA): 0 | damage to plant, BROTE (rate 500, 20 DAA): 10 | damage to plant, BRSNN (rate 500, 20 DAA): 20 | damage to plant, HORVW (rate 500, 20 DAA): 0 | damage to plant, SINAR (rate 500, 20 DAA): 0 | ABUTH damage to plant (100=total damage; 0=no damage) (Rates 15, 20 DAA): 0 | AMARE damage to plant (100=total damage; 0=no damage) (Rates 15, 20 DAA): 0 | DIGSA damage to plant (100=total damage; 0=no damage) (Rates 15, 20 DAA): 0 | ECHCG damage to plant (100=total damage; 0=no damage) (Rates 15, 20 DAA): 0 | ORYSA damage to plant (100=total damage; 0=no damage) (Rates 15, 20 DAA): 0 | PANMI damage to plant (100=total damage; 0=no damage) (Rates 15, 20 DAA): 0 | SETFA damage to plant (100=total damage; 0=no damage) (Rates 15, 20 DAA): 0 | ABUTH damage to plant (100=total damage; 0=no damage) (Rates 30, 20 DAA): 0 | AMARE damage to plant (100=total damage; 0=no damage) (Rates 30, 20 DAA): 0 | DIGSA damage to plant (100=total damage; 0=no damage) (Rates 30, 20 DAA): 60 | ECHCG damage to plant (100=total damage; 0=no damage) (Rates 30, 20 DAA): 20 | ORYSA damage to plant (100=total damage; 0=no damage) (Rates 30, 20 DAA): 0 | PANMI damage to plant (100=total damage; 0=no damage) (Rates 30, 20 DAA): 0 | SETFA damage to plant (100=total damage; 0=no damage) (Rates 30, 20 DAA): 0 | ABUTH damage to plant (100=total damage; 0=no damage) (Rates 60, 20 DAA): 0 | AMARE damage to plant (100=total damage; 0=no damage) (Rates 60, 20 DAA): 0 | DIGSA damage to plant (100=total damage; 0=no damage) (Rates 60, 20 DAA): 80 | ECHCG damage to plant (100=total damage; 0=no damage) (Rates 60, 20 DAA): 60 | ORYSA damage to plant (100=total damage; 0=no damage) (Rates 60, 20 DAA): 0 | PANMI damage to plant (100=total damage; 0=no damage) (Rates 60, 20 DAA): 0 | SETFA damage to plant (100=total damage; 0=no damage) (Rates 60, 20 DAA): 10 | ABUTH damage to plant (100=total damage; 0=no damage) (Rates 130, 20 DAA): 0 | AMARE damage to plant (100=total damage; 0=no damage) (Rates 130, 20 DAA): 0 | DIGSA damage to plant (100=total damage; 0=no damage) (Rates 130, 20 DAA): 90 | ECHCG damage to plant (100=total damage; 0=no damage) (Rates 130, 20 DAA): 90 | ORYSA damage to plant (100=total damage; 0=no damage) (Rates 130, 20 DAA): 0 | PANMI damage to plant (100=total damage; 0=no damage) (Rates 130, 20 DAA): 0 | SETFA damage to plant (100=total damage; 0=no damage) (Rates 130, 20 DAA): 60 | ABUTH damage to plant (100=total damage; 0=no damage) (Rates 250, 20 DAA): 0 | AMARE damage to plant (100=total damage; 0=no damage) (Rates 250, 20 DAA): 0 | DIGSA damage to plant (100=total damage; 0=no damage) (Rates 250, 20 DAA): 90 | ECHCG damage to plant (100=total damage; 0=no damage) (Rates 250, 20 DAA): 90 | ORYSA damage to plant (100=total damage; 0=no damage) (Rates 250, 20 DAA): 0 | PANMI damage to plant (100=total damage; 0=no damage) (Rates 250, 20 DAA): 0 | SETFA damage to plant (100=total damage; 0=no damage) (Rates 250, 20 DAA): 60 | ABUTH damage to plant (100=total damage; 0=no damage) (Rates 500, 20 DAA): 0 | AMARE damage to plant (100=total damage; 0=no damage) (Rates 500, 20 DAA): 0 | DIGSA damage to plant (100=total damage; 0=no damage) (Rates 500, 20 DAA): 90 | ECHCG damage to plant (100=total damage; 0=no damage) (Rates 500, 20 DAA): 90 | ORYSA damage to plant (100=total damage; 0=no damage) (Rates 500, 20 DAA): 0 | PANMI damage to plant (100=total damage; 0=no damage) (Rates 500, 20 DAA): 0 | SETFA damage to plant (100=total damage; 0=no damage) (Rates 500, 20 DAA): 90
